Measurements: US20230146455A1, “TREATMENT OF INFLAMMATORY DISEASES WITH PEPTIDES AND PHARMACEUTICAL COMPOSITIONS” (Yuyu Pharma, Inc., priority 2020, published 2023)
Values joined by “and” are separate entries in the source; they are usually repeats but may differ in a detail not shown here. Equal values may be shown once. Where a SMILES comes first, the peptide text is derived from it. [ ]: non-standard residue; d: D form. Hyp = O=C(O)[C@@H]1C[C@@H](O)CN1

Tests used:
CCL5/RANTES = test: Example 9 Luminex, LPS hPBMCs: CCL5/RANTES; type: cell-based, human; details: PBMC without LPS
Method: (§1) Treatment Human PBMCs were pretreated with YY-101, YDE-011 and YDE-043 or reference compound; Xiidra® at various concentration (ranging from 1 nM to 100 uM) for 2 h before stimulation. An equal volume of 0.5% DMSO was used as a vehicle control. Then, the cells were treated with LPS at 5 ug/ml. The supernatants from treated cells were harvested at 24 h and placed in a 96 well for Luminex cytokine & chemokine profiling using a Luminex 200 multiplex assay (Luminex; R&D system, USA).
(§2) The main study arm with triplicate wells per group in a 24-well plate: • 1. Blank • 2. PBMC: 0.5% DMSO • 3. PBMC+LPS (5 ug/ml) • 4. PBMC+YY-101 100 uM • 5. PBMC+YY-101 10 uM • 6. PBMC+YY-101 1 uM • 7. PBMC+YY-101 0.1 uM • 8. PBMC+YY-101 0.01 uM • 9. PBMC+LPS (5 ug/ml)+Xiidra®100 uM • 10. PBMC+LPS (5 ug/ml)+Xiidra® 10 uM • 11. PBMC+LPS (5 ug/ml)+Xiidra® 1 uM • 12. PBMC+LPS (5 ug/ml)+Xiidra®0.1 uM • 13. PBMC+LPS (5 ug/ml)+Xiidra®0.01 uM • 14. PBMC+LPS (5 ug/ml)+Xiidra®0.001 uM • 15. PBMC+LPS (5 ug/ml)+YY-101 100 uM • 16. PBMC+LPS (5 ug/ml)+YY-101 10 uM • 17. PBMC+LPS (5 ug/ml)+YY-101 1 uM • 18. PBMC+LPS (5 ug/ml)+YY-101 0.1 uM • 19. PBMC+LPS (5 ug/ml)+YY-101 0.01 uM • 20. PBMC+LPS (5 ug/ml)+YY-101 0.001 uM • 21. PBMC+LPS (5 ug/ml)+YDE-011 100 uM • 22. PBMC+LPS (5 ug/ml)+YDE-011 10 uM • 23. PBMC+LPS (5 ug/ml)+YDE-011 1 uM • 24. PBMC+LPS (5 ug/ml)+YDE-011 0.1 uM • 25. PBMC+LPS (5 ug/ml)+YDE-011 0.01 uM • 26. PBMC+LPS (5 ug/ml)+YDE-011 0.001 uM • 27. PBMC+LPS (5 ug/ml)+YDE-043 100 uM • 28. PBMC+LPS (5 ug/ml)+YDE-043 10 uM • 29. PBMC+LPS (5 ug/ml)+YDE-043 1 uM • 30. PBMC+LPS (5 ug/ml)+YDE-043 0.1 uM • 31. PBMC+LPS (5 ug/ml)+YDE-043 0.01 uM • 32. PBMC+LPS (5 ug/ml)+YDE-043 0.001 uM
(§3) Multiplex assay was used to measure 30 cytokines and chemokines. The 1:2, 1:10 and 1:200 diluted cell supernatant and serial dilution of the standard were dispensed into a 96 well plate at 50 ul/well. Then, the pre-mixed cocktail of antibody-coated magnetic beads was dispensed at 50 ul/well and incubated at room temperature for 2 h in a horizontal orbital microplate shaker at 800±500 rpm. The beads were washed using a magnetic device to prevent loss. The biotin-antibody was dispensed in 50 ul of each well and incubated at room temperature for 1 h in a shaker at 800±500 rpm. After washing, streptavidin-PE was added at 50 ul/well and incubated at room temperature for 30 min in a shaker under the same conditions. Finally, after washing, wash buffer (100 ul/well) was added to the plate and incubated in a shaker for 2 min. The Luminex™ 200 setting were set according to the manufacturer's protocol. The data was calculated with a standard five-parameter logistic nonlinear regression analysis of the data (xPonent software 4.2, USA). The levels of cytokine/chemokine are normalized to the live cell counts (1×10^5 cells/mL) and presented as concentrations per mL (pg/mL or ng/mL).

IL-8 = test: Example 9 Luminex, LPS hPBMCs: IL-8; type: cell-based, human
Method: as §1, §2, §3

[1] = test article 10 uM, single replicates (1st, 2nd)
[2] = test article 100 uM, single replicates (1st, 2nd)
[3] = PBMC + LPS(5 ug/ml) + test article 0.001 uM, Mean
[4] = PBMC + LPS(5 ug/ml) + test article 0.001 uM, single replicates (1st, 2nd, 3rd)
[5] = PBMC + LPS(5 ug/ml) + test article 0.01 uM, Mean
[6] = PBMC + LPS(5 ug/ml) + test article 0.01 uM, single replicates (1st, 2nd, 3rd)
[7] = PBMC + LPS(5 ug/ml) + test article 0.1 uM, Mean
[8] = PBMC + LPS(5 ug/ml) + test article 0.1 uM, single replicates (1st, 2nd, 3rd)
[9] = PBMC + LPS(5 ug/ml) + test article 1 uM, Mean
[10] = PBMC + LPS(5 ug/ml) + test article 1 uM, single replicates (1st, 2nd, 3rd)
[11] = PBMC + LPS(5 ug/ml) + test article 10 uM, Mean
[12] = PBMC + LPS(5 ug/ml) + test article 10 uM, single replicates (1st, 2nd, 3rd)
[13] = PBMC + LPS(5 ug/ml) + test article 100 uM, Mean
[14] = PBMC + LPS(5 ug/ml) + test article 100 uM, single replicates (1st, 2nd, 3rd)
[15] = PBMC + test article 0.01 uM, no LPS, Mean
[16] = PBMC + test article 0.01 uM, no LPS, single replicates (1st, 2nd)
[17] = PBMC + test article 0.1 uM, no LPS, Mean
[18] = PBMC + test article 0.1 uM, no LPS, single replicates (1st, 2nd)
[19] = PBMC + test article 1 uM, no LPS, Mean
[20] = PBMC + test article 1 uM, no LPS, single replicates (1st, 2nd)
[21] = PBMC + test article 10 uM, no LPS, Mean
[22] = PBMC + test article 10 uM, no LPS, single replicates (1st, 2nd)
[23] = PBMC + test article 100 uM, no LPS, Mean
[24] = PBMC + test article 100 uM, no LPS, single replicates (1st, 2nd)

For `CC(C)C[C@H](NC(=O)CNC(=O)[C@H](CC(=O)O)NC(=O)[C@H](CCC(N)=O)NC(=O)CNC(=O)[C@@H]1C[C@@H](O)CN1)C(=O)N[C@@H](C)C(=O)NCC(=O)N1CCC[C@H]1C(=O)N[C@@H](CCCCN)C(=O)O` [YY-101] (H-[Hyp]GQDGLAGPK-OH; N-terminus and C-terminus assumed), the “MFI (Bead name: CCL5/RANTES)” value (CCL5/RANTES; test article 10 uM, Mean) was 136.0, the “conc/live cell (CCL5/RANTES)” value (CCL5/RANTES; test article 10 uM, Mean) was 12.5 pg/10^5 and the “Concentration (CCL5/RANTES)” value (CCL5/RANTES; [1]) was 109.6 pg/mL and 48.3 pg/mL. The “MFI (Bead name: CCL5/RANTES)” value (CCL5/RANTES; [1]) was 201.5 and 70.5, the “conc/live cell (CCL5/RANTES)” value (CCL5/RANTES; [1]) was 17.1 pg/10^5 and 7.9 pg/10^5 and the “Concentration (CCL5/RANTES)” value (CCL5/RANTES; test article 100 uM, Mean) was 67.1 pg/mL. For the same compound, the “MFI (Bead name: CCL5/RANTES)” value (CCL5/RANTES; test article 100 uM, Mean) was 107.0, the “conc/live cell (CCL5/RANTES)” value (CCL5/RANTES; test article 100 uM, Mean) was 10.1 pg/10^5 and the “Concentration (CCL5/RANTES)” value (CCL5/RANTES; [2]) was 79.2 pg/mL and 55.0 pg/mL. For the same compound, the “MFI (Bead name: CCL5/RANTES)” value (CCL5/RANTES; [2]) was 131.5 and 82.5, the “conc/live cell (CCL5/RANTES)” value (CCL5/RANTES; [2]) was 12.4 pg/10^5 and 7.9 pg/10^5 and the Concentration (IL-8; [3]) was 47261.8 pg/mL. For the same compound, the conc/live cell (IL-8; [3]) was 7362.6 pg/10^5, the Concentration (IL-8; [4]) was 45291.5 pg/mL and 44844.4 pg/mL and 51649.5 pg/mL and the conc/live cell (IL-8; [4]) was 7945.9 pg/10^5 and 6316.1 pg/10^5 and 7825.7 pg/10^5. The Concentration (IL-8; [5]) was 45595.7 pg/mL, the conc/live cell (IL-8; [5]) was 7399.0 pg/10^5 and the Concentration (IL-8; [6]) was 45499.3 pg/mL and 44844.4 pg/mL and 46443.3 pg/mL. For the same compound, the conc/live cell (IL-8; [6]) was 7109.3 pg/10^5 and 7474.1 pg/10^5 and 7613.7 pg/10^5, the Concentration (IL-8; [7]) was 41918.3 pg/mL and the conc/live cell (IL-8; [7]) was 7205.6 pg/10^5. The Concentration (IL-8; [8]) was 41283.9 pg/mL and 42997.0 pg/mL and 41473.9 pg/mL, the conc/live cell (IL-8; [8]) was 6658.7 pg/10^5 and 8268.7 pg/10^5 and 6689.3 pg/10^5 and the Concentration (IL-8; [9]) was 46108.9 pg/mL. The conc/live cell (IL-8; [9]) was 7089.9 pg/10^5, the Concentration (IL-8; [10]) was 45195.7 pg/mL and 45259.6 pg/mL and 47871.4 pg/mL and the conc/live cell (IL-8; [10]) was 7173.9 pg/10^5 and 6374.6 pg/10^5 and 7721.2 pg/10^5. The Concentration (IL-8; [11]) was 46679.5 pg/mL, the conc/live cell (IL-8; [11]) was 7101.0 pg/10^5 and the Concentration (IL-8; [12]) was 46315.2 pg/mL and 50742.2 pg/mL and 42981.1 pg/mL. For the same compound, the conc/live cell (IL-8; [12]) was 7719.2 pg/10^5 and 7928.5 pg/10^5 and 5655.4 pg/10^5, the Concentration (IL-8; [13]) was 46500.3 pg/mL and the conc/live cell (IL-8; [13]) was 8028.8 pg/10^5. The Concentration (IL-8; [14]) was 48337.8 pg/mL and 46988.3 pg/mL and 44174.7 pg/mL, the conc/live cell (IL-8; [14]) was 7672.7 pg/10^5 and 7578.8 pg/10^5 and 8834.9 pg/10^5 and the Concentration (IL-8; [15]) was 4859.1 pg/mL. The conc/live cell (IL-8; [15]) was 989.4 pg/10^5, the Concentration (IL-8; [16]) was 2863.8 pg/mL and 6854.4 pg/mL and the conc/live cell (IL-8; [16]) was 550.7 pg/10^5 and 1428.0 pg/10^5. For the same compound, the Concentration (IL-8; [17]) was 4413.2 pg/mL, the conc/live cell (IL-8; [17]) was 835.0 pg/10^5 and the Concentration (IL-8; [18]) was 2701.4 pg/mL and 6125.1 pg/mL. For the same compound, the conc/live cell (IL-8; [18]) was 614.0 pg/10^5 and 1056.0 pg/10^5, the Concentration (IL-8; [19]) was 4580.5 pg/mL and the conc/live cell (IL-8; [19]) was 832.8 pg/10^5. The Concentration (IL-8; [20]) was 4461.8 pg/mL and 4699.1 pg/mL, the conc/live cell (IL-8; [20]) was 811.2 pg/10^5 and 854.4 pg/10^5 and the Concentration (IL-8; [21]) was 21138.7 pg/mL. The conc/live cell (IL-8; [21]) was 3322.0 pg/10^5, the Concentration (IL-8; [22]) was 37311.2 pg/mL and 4966.2 pg/mL and the conc/live cell (IL-8; [22]) was 5829.9 pg/10^5 and 814.1 pg/10^5. The Concentration (IL-8; [23]) was 15311.8 pg/mL, the conc/live cell (IL-8; [23]) was 2320.9 pg/10^5 and the Concentration (IL-8; [24]) was 19929.7 pg/mL and 10693.9 pg/mL. For the same compound, the conc/live cell (IL-8; [24]) was 3114.0 pg/10^5 and 1527.7 pg/10^5.
